For 80 compounds, RP-LC retention time results are on record in the METLIN SMRT retention time set (Domingo-Almenara et al. 2019).

A short description of this data set: gradient 5% acetonitrile 3 min, to 50% in 2 min, to 85% in 15 min, held 3 min, 100 µL/min. Particulars: column: Zorbax Extend-C18 2.1 x 50 mm; eluents: water / acetonitrile, 0.1% formic acid. The essentials: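 Values are retention times taken from adduct peaks that software picked and an analyst inspected. The pure standards were run as mixtures of ~100 molecules on HPLC linked to a quadrupole time-of-flight mass spectrometer, in positive and negative ionization mode. A Zorbax Extend-C18 column (2.1 × 50 mm, 1.8 μm) was used at 100 μL/min with water and acetonitrile, each including 0.1% formic acid.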
Compound `COc1ccc(-c2nc(-c3ccc(S(=O)(=O)N4CCCC4)cc3)no2)cc1` gave an RP-LC retention time of 1140 s. In the case of `O=c1c2cc(-c3ccc(F)cc3)nn2cnn1Cc1nc(-c2ccc(Cl)c(F)c2)no1`, the RP-LC retention time is 1260 s. In the case of `Cc1ccc(NS(=O)(=O)c2cc3c(s2)CCN(C(=O)C2CCC2)C3)c(C)c1`, the RP-LC retention time was determined as 943 s. The compound `CCS(=O)(=O)N1CC(=O)N(c2cccc(Cl)c2C)C(C)(C(=O)NCc2ccccc2)C1` (stereo not given) yielded an RP-LC retention time of 906 s. Compound `CCOc1cc(=O)n2c(c1C(=O)OCc1ccc(Cl)cc1)CCCC2` yielded an RP-LC retention time of 970 s. With `CC1CC(=O)Nc2ccccc2N1C(=O)c1ccc(Cl)cc1` (stereo not given) the figure was 743 s; with `COc1ccc2ncc(S(=O)(=O)c3ccc(C)c(Cl)c3)c(OC)c2c1`, 1100 s.

`CCc1ccccc1NC(=O)C1CC(=O)N(c2ccc3oc(C)nc3c2)C1` (stereo not given) showed an RP-LC retention time of 723 s. With `Cc1ccc(C(C)NC(=O)c2ccc3c(c2)nc2n3CCN(C(C)C)C2=O)c(C)c1` (stereo not given), the RP-LC retention time was 786 s. Turning to `Cc1c(C(=O)N2CCN(C)CC2)sc2ncnc(N3CCN(c4ccccn4)CC3)c12`, the RP-LC retention time stood at 523 s. The figure for `CCCC(=O)N1CCc2c([nH]c3ccccc23)C1c1ccc(SC)cc1` (stereo not given) is 1170 s; for `CCOC(=O)c1c(N)n(CCCOC)c2nc3ccccc3nc12` it is 645 s; for `COc1ccc2nc(NC3=NCN(Cc4cccnc4)CN3)nc(C)c2c1` it is 560 s. `COc1nccnc1N1CCC(NC(=O)COc2ccc(F)cc2)C1` (stereo not given) returned an RP-LC retention time of 726 s. With `CCCn1c(=O)c(C)nc2cc(-c3noc(-c4ccccc4F)n3)ccc21` the figure was 1130 s; with `COc1cc(C[C@H](C)N)c(OC)cc1I`, 705 s. The figure for `CCN1C(=O)S/C(=C\C(=O)O)C1=O` is 638 s; for `CCOc1ccc(-c2csc(NC(=O)CCCOc3ccc(Cl)cc3)n2)cc1` it is 810 s. With `O=C(NC1CCN(c2cc(-c3cccs3)[nH]n2)C1)c1ccc(F)cc1Cl` (stereo not given) the figure was 726 s. For `CC(=O)N1c2ccc(S(=O)(=O)N3CCCC3)cc2CC1C(=O)NCc1ccc(N(C)C)cc1` (stereo not given), the RP-LC retention time was 620 s. `CC(C)CCn1nc2c(S(=O)(=O)N3CCCCCC3)cccn2c1=O` registered an RP-LC retention time of 982 s.

As for `Cc1ccc(NS(=O)(=O)c2ccc(-c3nnc(C4CCC4)o3)o2)c(F)c1`, the RP-LC retention time turned out to be 925 s.

The compound `Cc1cccc(NC(=O)C2C(=O)NC3(C)CC2c2ccccc2O3)c1` (stereo not given) came in with an RP-LC retention time of 920 s. `COc1ccc(Cl)cc1NC(=O)Cn1c2c(c(=O)n(C3CCCCC3)c1=O)CCC2`: the RP-LC retention time worked out at 997 s. The figure for `Cc1ccc(CC(=O)N2CCC3(CC2)NC(=O)c2cc(F)ccc2N3C)cc1` is 804 s; for `COC1CC2C=C(C)/C=C/C=C/C(=O)NC(c3ccccc3)C/C=C/CCC(O)CC(=O)C2=C1O` (stereo not given) it is 977 s.

With `COc1ccc2c(c1)CCc1sc(NC(=O)c3ccc(F)cc3)nc1-2`, the RP-LC retention time is 1140 s. With `Cc1ccc2c(c1)N(CCCC(=O)N1CCN(c3cc(=O)n(C)c(=O)n3C)CC1)C(=O)CO2` the figure was 700 s; with `N#Cc1ccc(NC(=O)Cn2cccc(-c3nc(-c4ccc(Cl)cc4)no3)c2=O)cc1`, 933 s.

Compound `COc1cc(NC(=O)Cc2csc3nc(-c4ccccc4)cn23)cc(OC)c1OC` gave an RP-LC retention time of 749 s. With `O=C(c1cccs1)N1CCC(F)(C(=O)NC2CC2)CC1` the figure was 634 s; with `Cc1cc(C)n2c(Nc3ccccc3)c(-c3ccccc3)nc2n1`, 671 s. The figure for `CCCN(C)c1nccn2c(=O)n(CC(=O)Nc3cccc(Br)c3)nc12` is 730 s.

Compound `CC1Oc2ccc(-c3csc(NC(=O)c4ccc(F)cc4)n3)cc2NC1=O` (stereo not given) yielded an RP-LC retention time of 879 s. With `COc1ccc(C2C(C(=O)NCCC(C)C)c3cc(OC)c(OC)cc3C(=O)N2C)cc1` (stereo not given) the figure was 804 s; with `COc1cccc(C(=O)NC(c2ccccc2)c2nnc(N3CCCC3)o2)c1` (stereo not given), 788 s; with `CCCC(=O)Nc1nc(-c2ccc3c(c2)NC(=O)CO3)c(C)s1`, 752 s. Turning to `Cc1cccc(CNC(=O)c2ccc3c(c2)CC(=O)N3C)c1`, the RP-LC retention time was found to be 742 s. Turning to `NC(=O)C1CCN(C(=O)NC2CCCCC2)CC1`, the RP-LC retention time amounted to 584 s. The figure for `CCOc1ccccc1NC(=O)NCCCn1c(C(F)(F)F)nc2cccnc21` is 856 s; for `O=C(c1ccc(F)cc1)N1CCCC1c1nc(-c2cccc(C(F)(F)F)c2)no1` (stereo not given) it is 1090 s; for `Cc1ccn2c(Nc3ccc4c(c3)OCCO4)c(-c3ccccc3)nc2c1` it is 690 s. Compound `CCc1nc2cc(N3CCC(C(=O)N4CCC5(CC4)OCCO5)CC3)cnc2nc1CC` displayed an RP-LC retention time of 723 s. For the compound `CCc1nc(-c2cc(S(=O)(=O)N3CCC(C(=O)Nc4ccc(OC)cc4)CC3)c(C)s2)no1`, the RP-LC retention time is 1000 s. The compound `CC(NS(=O)(=O)c1cc(-c2nc(C(C)(C)C)cs2)cs1)c1ccccc1` (stereo not given) yielded an RP-LC retention time of 1240 s. With `O=C(Cn1cnc2nc3c(cc2c1=O)CCCC3)NCc1cccc(Br)c1` the figure was 756 s.

Compound `CC(C)OCCCNC(=O)COc1ccccc1-c1nnc(-c2ccccc2)o1` had an RP-LC retention time of 631 s.

`CC(C)n1nnc2ccc(-c3noc(-c4ccccc4)n3)cc21` yielded an RP-LC retention time of 1130 s. For the compound `Cc1noc(C)c1S(=O)(=O)N1CCC(n2nc(-c3ccccc3)nc2C)C1` (stereo not given), the RP-LC retention time stood at 806 s. With `CCCCNC(=O)C1CCN(C(=O)CCc2c(C)[nH]c(C(=O)OCC)c2C)CC1`, the RP-LC retention time was 748 s. `Cc1nn(CC(=O)NCCc2ccco2)c(=O)c2c(-n3cccc3)n(-c3ccc(Cl)cc3)nc12` came in with an RP-LC retention time of 973 s. The figure for `CC1CN(C2CCCCC2)c2nc3c(c(=O)n(CCCO)c(=O)n3C)n2C1` (stereo not given) is 803 s. Regarding `CCC(C)NC(=O)C1(c2ccc(NS(C)(=O)=O)cc2)CCCCC1` (stereo not given), the RP-LC retention time stood at 736 s. Regarding `CCn1cc(-c2nc(C)c(C(=O)NCc3ccc(OC)cc3)s2)c2cccnc21`, the RP-LC retention time was 902 s.

Consider `Cc1cc(C)c2c(N3CCCCC3)nc(C(=O)N3CCOCC3)nc2n1`, for which the RP-LC retention time came to 608 s. The figure for `CC(=O)N1CCN(c2ccnc3c2c(=O)n(CC(=O)Nc2cc(C)on2)c(=O)n3C)CC1` is 579 s. Compound `Cc1cc(C)cc(S(=O)(=O)N2CCC(C(=O)NCCc3csc(-c4ccccc4)n3)CC2)c1` yielded an RP-LC retention time of 1020 s. The figure for `CN(C)C(=O)OCC1COc2ccccc2O1` (stereo not given) is 883 s. The figure for `CCNC(=O)C1CCCN1C(=O)Nc1ccccc1` (stereo not given) is 619 s; for `CC1CCN(C(=O)c2cn(-c3cc(-c4nc(C(C)(C)C)no4)ccn3)cn2)CC1` it is 1060 s; for `CC(C)NC(=O)N1CCCC(c2cccc(C(=O)NCc3ccc(OC(C)C)cc3)c2)C1` (stereo not given) it is 939 s. With `OCCOCCNCc1ccc(-c2ccc(Cl)cc2)o1` the figure was 644 s; with `CCCCOc1ccc(-c2ccc(=O)n(Cc3nc(-c4ccccc4Br)no3)n2)cc1`, 1260 s; with `CCc1nc(N)n(CC(=O)NCc2ccc(F)cc2)c(=O)c1C`, 634 s.

As to `CC12CCC3C(CC=C4CC(O)CCC43C)C1C/C(=C\N1CCCC1)C2=O` (stereo not given), the RP-LC retention time was determined as 943 s. For the compound `OC(CNCc1ccc(-c2cc(Cl)ccc2Cl)o1)c1ccccc1` (stereo not given), the RP-LC retention time is 762 s. Compound `COc1ccc(C2CCN(S(=O)(=O)c3cccc(C(F)(F)F)c3)C2)cc1` (stereo not given) displayed an RP-LC retention time of 1060 s. With `Cc1ccc(CN2C[C@@H]3C(=O)N(CCCN4CCCC4=O)C(=O)[C@@H]3C2)cc1` the figure was 589 s; with `CCOC(=O)C1=C(CN2CCC(c3ccccc3)C2)NC(=O)NC1c1cccs1` (stereo not given), 681 s. With `COc1ccc(-c2nc3cnc(Br)cn3c2Nc2ccc3c(c2)OCCO3)cc1` the figure was 900 s; with `O=c1ccnc(Nc2ccc(Cl)cc2)[nH]1`, 701 s; with `CCn1nccc1-c1cccc(-c2noc(-c3cccc(OC)c3OC)n2)c1`, 1170 s. In turn, `CN1CCN(C(=O)CCCN2C(=O)CCn3nc(-c4cn(C)c5ccccc45)cc32)CC1` had an RP-LC retention time of 571 s. The figure for `CC1=C(c2ccc(Cl)cc2)S(=O)(=O)N=C1N1CCCN(C(=O)CC(C)C)CC1` is 875 s. With `CC(C)N1C(=O)C2(CCCCC2)C1C(=O)N1CCCCC1` (stereo not given) the figure was 722 s; with `COc1ccc(Cl)cc1NC(=O)CSc1nccc(N2CCN(c3cc(C)ccc3C)CC2)n1`, 1160 s. Turning to `CCN1CCCC1CN(CC(=O)N1CCNCC1)S(=O)(=O)c1ccc(C(C)C)cc1` (stereo not given), the RP-LC retention time worked out at 604 s. With `Clc1ccc(-c2ccc(CNCc3ccncc3)o2)c(Cl)c1` the figure was 742 s; with `COc1cc(C(=O)N2CCC3(CC2)Nc2ccccc2-n2cccc23)cc(OC)c1OC`, 902 s; with `Cc1nc(Nc2ccc(F)cn2)sc1C(=O)NCc1ccc(F)cc1`, 832 s.
